Experimental data reported in patent US11802111B2, “Cyclobutyl amide monoacylglycerol lipase modulators” (Janssen Pharmaceutica NV, priority 2020, dated 2023).

What follows are molecules tested against human MGL from HeLa cells (Homo sapiens (Human), UniProt Q99685) (assay: MGL in vitro activity assay ([glycerol-1,3-3H]-oleoyl glycerol hydrolysis, activated carbon filtration)). Conditions: 300 nM [Glycerol-1,3-3H]-oleoyl glycerol, one hour.
Assay type: biochemical
Method in brief: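 Activity measured as tritium in the flow-through after activated carbon filtration of a 1 h reaction containing 300 nM 3H-oleoyl glycerol, compound and HeLa-derived human MGL. Compounds screened at 10 μM; IC50 series start at an empirically chosen highest concentration.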

Sequence of human MGL from HeLa cells (Q99685 whole entry): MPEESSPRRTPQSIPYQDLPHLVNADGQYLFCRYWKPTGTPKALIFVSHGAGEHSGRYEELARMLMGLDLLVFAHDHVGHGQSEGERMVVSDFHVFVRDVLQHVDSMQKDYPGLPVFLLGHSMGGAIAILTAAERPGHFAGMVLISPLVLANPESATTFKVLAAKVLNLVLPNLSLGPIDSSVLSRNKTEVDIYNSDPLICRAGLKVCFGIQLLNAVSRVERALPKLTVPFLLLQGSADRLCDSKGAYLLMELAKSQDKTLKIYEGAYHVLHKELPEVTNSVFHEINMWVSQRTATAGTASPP

Structure (SMILES)	IC50 [nM]
CC(C)c1cccc([C@@H]2CCC3(C2)CN(C(=O)[C@H]2C[C@@](C)(O)C2)C3)c1 (stereo in doubt) [Example 47, ((1s,3*S)-3-Hydroxy-3-methylcyclobutyl)((*R)-6-(3-isopropylphenyl)-2-azaspiro[3.4]octan-2-yl)methanone]	21
C[C@]1(O)C[C@@H](C(=O)N2CC3(CCC(Cc4ccc(OC(F)F)cc4)CC3)C2)C1 [Example 161, (7-(4-(Difluoromethoxy)benzyl)-2-azaspiro[3.5]nonan-2-yl)((1s,3s)-3-hydroxy-3-methylcyclobutyl)methanone]	19
Cc1cc(C2CCC3(CC2)CN(C(=O)[C@H]2C[C@@](C)(O)C2)C3)ccc1F [Example 353, (7-(4-Fluoro-3-methylphenyl)-2-azaspiro[3.5]nonan-2-yl)((1s,3s)-3-hydroxy-3-methylcyclobutyl)methanone]	18
Cc1ccc(C2CCC3(CC2)CN(C(=O)[C@H]2C[C@@](C)(O)C2)C3)cc1Cl [Example 22, (7-(3-Chloro-4-methylphenyl)-2-azaspiro[3.5]nonan-2-yl)((1s,3s)-3-hydroxy-3-methylcyclobutyl)methanone]	12
Cc1cc2cnn(C)c2cc1CC1CC2(C1)CN(C(=O)[C@H]1C[C@@](C)(O)C1)C2 [Example 301, (6-((1,5-Dimethyl-1H-indazol-6-yl)methyl)-2-azaspiro[3.3]heptan-2-yl)((1s,3s)-3-hydroxy-3-methylcyclobutyl)methanone]	36
COc1cc(C2CCC3(CC2)CN(C(=O)[C@H]2C[C@@](C)(O)C2)C3)cc(C(F)(F)F)c1 [Example 119, ((1s,3s)-3-Hydroxy-3-methylcyclobutyl)(7-(3-methoxy-5-(trifluoromethyl)phenyl)-2-azaspiro[3.5]nonan-2-yl)methanone]	12
CC(C)(C)c1cccc(C2CC3(CCN(C(=O)[C@H]4C[C@@](C)(O)C4)CC3)C2)c1 [Example 153, (2-(3-(tert-Butyl)phenyl)-7-azaspiro[3.5]nonan-7-yl)((1s,3s)-3-hydroxy-3-methylcyclobutyl)methanone]	22
Cn1ccc2ccc(C3CC4(C3)CN(C(=O)[C@H]3C[C@@](C)(O)C3)C4)nc21 [Example 269, ((1s,3s)-3-Hydroxy-3-methylcyclobutyl)(6-(1-methyl-1H-pyrrolo[2,3-b]pyridin-6-yl)-2-azaspiro[3.3]heptan-2-yl)methanone]	507
Cc1ccc(OC2CC3(CCN(C(=O)[C@H]4C[C@@](C)(O)C4)CC3)C2)cc1 [Example 245, ((1s,3s)-3-Hydroxy-3-methylcyclobutyl)(2-(p-tolyloxy)-7-azaspiro[3.5]nonan-7-yl)methanone]	329
COc1cccc(C2CCC3(CC2)CN(C(=O)[C@H]2C[C@@](C)(O)C2)C3)c1C [Example 106, ((1s,3s)-3-Hydroxy-3-methylcyclobutyl)(7-(3-methoxy-2-methylphenyl)-2-azaspiro[3.5]nonan-2-yl)methanone]	30
Cc1ccc(OC2CCC3(C2)CN(C(=O)[C@H]2C[C@@](C)(O)C2)C3)cc1C(F)(F)F (mixture of isomers) [Example 256, (rac)-((1s,3s)-3-Hydroxy-3-methylcyclobutyl)(6-(4-methyl-3-(trifluoromethyl)phenoxy)-2-azaspiro[3.4]octan-2-yl)methanone]	74
C[C@]1(O)C[C@@H](C(=O)N2CC3(CCC(c4ccc(C(F)(F)F)cc4)C3)C2)C1 (mixture of isomers) [Example 55, (rac)-((1s,3s)-3-Hydroxy-3-methylcyclobutyl)(6-(4-(trifluoromethyl)phenyl)-2-azaspiro[3.4]octan-2-yl)methanone]	22
Cc1ccc(CC2CC3(CCN(C(=O)[C@H]4C[C@@](C)(O)C4)CC3)C2)cc1 [Example 173, ((1s,3s)-3-Hydroxy-3-methylcyclobutyl)(2-(4-methylbenzyl)-7-azaspiro[3.5]nonan-7-yl)methanone]	28
COc1cc(C2CCC3(CC2)CN(C(=O)[C@H]2C[C@@](C)(O)C2)C3)ccc1C(F)(F)F [Example 113, ((1s,3s)-3-Hydroxy-3-methylcyclobutyl)(7-(3-methoxy-4-(trifluoromethyl)phenyl)-2-azaspiro[3.5]nonan-2-yl)methanone]	37
C[C@]1(O)C[C@@H](C(=O)N2CC3(CCC(Cc4ccccc4)C3)C2)C1 (mixture of isomers) [Example 234, (rac)-(6-Benzyl-2-azaspiro[3.4]octan-2-yl)((1s,3s)-3-hydroxy-3-methylcyclobutyl)methanone]	98
Cc1ccc(C2CCC3(C2)CN(C(=O)[C@H]2C[C@@](C)(O)C2)C3)cc1C(F)(F)F (mixture of isomers) [Example 65, (rac)-((1s,3s)-3-Hydroxy-3-methylcyclobutyl)(6-(4-methyl-3-(trifluoromethyl)phenyl)-2-azaspiro[3.4]octan-2-yl)methanone]	11
Cn1ccc2cc(C3CC4(C3)CN(C(=O)[C@H]3C[C@@](C)(O)C3)C4)cnc21 [Example 268, ((1s,3s)-3-Hydroxy-3-methylcyclobutyl)(6-(1-methyl-1H-pyrrolo[2,3-b]pyridin-5-yl)-2-azaspiro[3.3]heptan-2-yl)methanone]	2400
COc1nc(OC2CCC3(CC2)CN(C(=O)[C@H]2C[C@@](C)(O)C2)C3)ccc1C(F)(F)F [Example 458, ((1s,3s)-3-Hydroxy-3-methylcyclobutyl)(7-((6-methoxy-5-(trifluoromethyl)pyridin-2-yl)oxy)-2-azaspiro[3.5]nonan-2-yl)methanone]	0.55
Cc1cc(C2CC3(C2)CN(C(=O)[C@H]2C[C@@](C)(O)C2)C3)ccc1C(F)(F)F [Example 33, ((1s,3s)-3-Hydroxy-3-methylcyclobutyl)(6-(3-methyl-4-(trifluoromethyl)phenyl)-2-azaspiro[3.3]heptan-2-yl)methanone]	246
